The test system of the data set is CCRIS mutagenicity, Ames/micronucleus/aberration tests. In words: CCRIS mutagenicity studies.

The source made the active and inactive calls. No rule for the calls is given here.

For the molecule `CCOP(=O)(NC(C)C)Oc1ccc(SC)c(C)c1` (stereo not given), the mutagenic call is, setting by setting: (Test System: AMES SALMONELLA TYPHIMURIUM, Strain/Indicator: TA97, Metabolic Activation: HAMSTER, LIVER, S-9, AROCLOR 1254 (10%), Method: PREINCUBATION) “inactive; negative”; (Test System: AMES SALMONELLA TYPHIMURIUM, Strain/Indicator: TA97, Metabolic Activation: HAMSTER, LIVER, S-9, AROCLOR 1254 (30%), Method: PREINCUBATION) “inactive; negative”; (Test System: AMES SALMONELLA TYPHIMURIUM, Strain/Indicator: TA97, Metabolic Activation: NONE, Method: PREINCUBATION) “inactive; negative”; (Test System: AMES SALMONELLA TYPHIMURIUM, Strain/Indicator: TA97, Metabolic Activation: RAT, LIVER, S-9, AROCLOR 1254 (10 OR 30%), Method: PREINCUBATION) “inactive; negative”; (Test System: AMES SALMONELLA TYPHIMURIUM, Strain/Indicator: TA98, Metabolic Activation: HAMSTER, LIVER, S-9, AROCLOR 1254 (10%), Method: PREINCUBATION) “inactive; negative”; (Test System: AMES SALMONELLA TYPHIMURIUM, Strain/Indicator: TA98, Metabolic Activation: HAMSTER, LIVER, S-9, AROCLOR 1254 (30%), Method: PREINCUBATION) “inactive; negative”. Also, the mutagenic call runs as follows: (Test System: AMES SALMONELLA TYPHIMURIUM, Strain/Indicator: TA98, Metabolic Activation: NONE, Method: PREINCUBATION) “inactive; negative”; (Test System: AMES SALMONELLA TYPHIMURIUM, Strain/Indicator: TA98, Metabolic Activation: RAT, LIVER, S-9, AROCLOR 1254 (10 OR 30%), Method: PREINCUBATION) “inactive; negative”; (Test System: AMES SALMONELLA TYPHIMURIUM, Strain/Indicator: TA100, Metabolic Activation: HAMSTER, LIVER, S-9, AROCLOR 1254 (10%), Method: PREINCUBATION) “inactive; negative”; (Test System: AMES SALMONELLA TYPHIMURIUM, Strain/Indicator: TA100, Metabolic Activation: HAMSTER, LIVER, S-9, AROCLOR 1254 (30%), Method: PREINCUBATION) “inactive; negative”; (Test System: AMES SALMONELLA TYPHIMURIUM, Strain/Indicator: TA100, Metabolic Activation: NONE, Method: PREINCUBATION) “inactive; negative”; (Test System: AMES SALMONELLA TYPHIMURIUM, Strain/Indicator: TA100, Metabolic Activation: RAT, LIVER, S-9, AROCLOR 1254 (10 OR 30%), Method: PREINCUBATION) “inactive; negative”. In addition, the mutagenic call is “inactive; negative” (Test System: AMES SALMONELLA TYPHIMURIUM, Strain/Indicator: TA1535, Metabolic Activation: HAMSTER, LIVER, S-9, AROCLOR 1254 (10%), Method: PREINCUBATION); “inactive; negative” (Test System: AMES SALMONELLA TYPHIMURIUM, Strain/Indicator: TA1535, Metabolic Activation: HAMSTER, LIVER, S-9, AROCLOR 1254 (30%), Method: PREINCUBATION); “inactive; negative” (Test System: AMES SALMONELLA TYPHIMURIUM, Strain/Indicator: TA1535, Metabolic Activation: NONE, Method: PREINCUBATION); “inactive; negative” (Test System: AMES SALMONELLA TYPHIMURIUM, Strain/Indicator: TA1535, Metabolic Activation: RAT, LIVER, S-9, AROCLOR 1254 (10 OR 30%), Method: PREINCUBATION).

For `Fc1ccc2ccc3cccnc3c2c1`, the mutagenic call (Test System: AMES SALMONELLA TYPHIMURIUM, Strain/Indicator: TA100, Metabolic Activation: RAT, LIVER, S-9, PHENOBARBITAL AND 5,6-BENZOFLAVONE, Method: PREINCUBATION) is “active; positive”.

Take `Cc1ccc(NCCO)cc1O`: the mutagenic call (Test System: AMES SALMONELLA TYPHIMURIUM, Strain/Indicator: TA98, Metabolic Activation: NONE, Method: STANDARD PLATE) is “inactive; negative”; the mutagenic call (Test System: AMES SALMONELLA TYPHIMURIUM, Strain/Indicator: TA98, Metabolic Activation: RAT, LIVER, S-9, AROCLOR 1254, Method: STANDARD PLATE) was “inactive; negative”; the mutagenic call (Test System: AMES SALMONELLA TYPHIMURIUM, Strain/Indicator: TA100, Metabolic Activation: NONE, Method: STANDARD PLATE) is “inactive; negative”; the mutagenic call (Test System: AMES SALMONELLA TYPHIMURIUM, Strain/Indicator: TA100, Metabolic Activation: RAT, LIVER, S-9, AROCLOR 1254, Method: STANDARD PLATE) is “inactive; negative”; the mutagenic call (Test System: AMES SALMONELLA TYPHIMURIUM, Strain/Indicator: TA1535, Metabolic Activation: NONE, Method: STANDARD PLATE) is “inactive; negative”; the mutagenic call (Test System: AMES SALMONELLA TYPHIMURIUM, Strain/Indicator: TA1535, Metabolic Activation: RAT, LIVER, S-9, AROCLOR 1254, Method: STANDARD PLATE) was “inactive; negative”. Further, the mutagenic call is “inactive; negative” (Test System: AMES SALMONELLA TYPHIMURIUM, Strain/Indicator: TA1537, Metabolic Activation: NONE, Method: STANDARD PLATE); “inactive; negative” (Test System: AMES SALMONELLA TYPHIMURIUM, Strain/Indicator: TA1537, Metabolic Activation: RAT, LIVER, S-9, AROCLOR 1254, Method: STANDARD PLATE); “inactive; negative” (Test System: AMES SALMONELLA TYPHIMURIUM, Strain/Indicator: TA1538, Metabolic Activation: NONE, Method: STANDARD PLATE); “inactive; negative” (Test System: AMES SALMONELLA TYPHIMURIUM, Strain/Indicator: TA1538, Metabolic Activation: RAT, LIVER, S-9, AROCLOR 1254, Method: STANDARD PLATE); “inactive; negative” (Test System: MOUSE LYMPHOMA, Strain/Indicator: L5178Y (TK+/TK-), Metabolic Activation: NONE, Method: SUSPENSION/PLATE); “inactive; negative” (Test System: UDS HUMAN CELLS, Strain/Indicator: THY INCORP, Metabolic Activation: NONE, Method: LIQUID SCINTILLATION COUNTING). Also, under “Test System: UDS HUMAN CELLS, Strain/Indicator: THY INCORP, Metabolic Activation: RAT, LIVER, S-9, PHENOBARBITAL AND BETA-NAPHTHOFLAVONE, Method: LIQUID SCINTILLATION COUNTING”, the mutagenic call was “inactive; negative”.

(Values after PubChem BioAssay AID1259407 (Chemical Carcinogenesis Research Information System (CCRIS), 2018).)
